Experimental data: patent US9593157B2, “Chimeric polypeptides comprising G protein-coupled receptors and VHH antibodies” (VIB VZW, priority 2013, dated 2017)

Assays:
Type in all cases: binding
M2Δi3R-Nb9-8 = molecular target: T1, M2Δi3R-Nb9-8 (Homo sapiens, UniProt P08172, A373T/DEL233-372/K374R/N2D/N3D/N6D/N9D); assay: Radioligand competition on M2Δi3R-Nb9-8 fusion (data not shown)
T1 construct: linker […]; His6 (C); made in house
T1 sequence (P08172 with tags, fused parts or gaps N2D/N3D/N6D/N9D/DEL233-372/A373T/K374R): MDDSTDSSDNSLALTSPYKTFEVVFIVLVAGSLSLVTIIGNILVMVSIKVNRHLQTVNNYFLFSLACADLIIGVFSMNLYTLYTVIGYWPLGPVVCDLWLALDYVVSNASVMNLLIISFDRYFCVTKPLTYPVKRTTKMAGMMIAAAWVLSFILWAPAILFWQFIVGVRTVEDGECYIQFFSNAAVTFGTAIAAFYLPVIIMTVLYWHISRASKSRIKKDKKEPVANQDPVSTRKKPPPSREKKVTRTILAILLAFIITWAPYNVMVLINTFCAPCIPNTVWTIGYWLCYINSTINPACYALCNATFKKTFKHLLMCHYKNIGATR

M2Δi3R-Nb9-1 = molecular target: T2, M2Δi3R-Nb9-1 (Homo sapiens, UniProt P08172, A373T/DEL233-372/K374R/N2D/N3D/N6D/N9D); assay: Comparative radioligand competition assay ([3H]-N methyl scopolamine) on Sf9 membranes expressing M2Δi3R-Nb9-1
T2 construct: linker […]; made in house; host or cells: Sf9 insect cells (baculovirus), membranes
T2 sequence (P08172 with tags, fused parts or gaps N2D/N3D/N6D/N9D/DEL233-372/A373T/K374R): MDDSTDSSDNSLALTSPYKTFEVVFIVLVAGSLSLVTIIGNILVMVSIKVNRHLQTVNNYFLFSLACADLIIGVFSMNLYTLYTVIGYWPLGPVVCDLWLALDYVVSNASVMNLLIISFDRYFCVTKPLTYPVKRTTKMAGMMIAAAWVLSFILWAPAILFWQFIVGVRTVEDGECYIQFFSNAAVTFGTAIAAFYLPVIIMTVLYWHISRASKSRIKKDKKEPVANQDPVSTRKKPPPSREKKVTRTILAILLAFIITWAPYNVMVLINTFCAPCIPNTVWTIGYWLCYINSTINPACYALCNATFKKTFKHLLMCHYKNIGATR
Protocol: (§1) Radioligand competition binding experiments were performed on Sf9 insect cell membranes expressing either M2Δi3R (no Single-domain antibody fused) or M2Δi3R-Nb9-1. […] After filtration, membranes retained on the filter plates were washed with ice-cold wash buffer (20 mM Tris-HCl pH7.4), and filters were dried for 1 hour at 50° C.

M2Δi3R = molecular target: T3, M2Δi3R (Homo sapiens, UniProt P08172, A373T/DEL233-372/K374R/N2D/N3D/N6D/N9D); assay: Comparative radioligand competition assay ([3H]-N methyl scopolamine) on Sf9 membranes expressing non-fused M2Δi3R; conditions: [3H]-NMS 0.5 nM
T3 construct: made in house; host or cells: Sf9 insect cells (baculovirus), membranes
T3 sequence (P08172 with tags, fused parts or gaps N2D/N3D/N6D/N9D/DEL233-372/A373T/K374R): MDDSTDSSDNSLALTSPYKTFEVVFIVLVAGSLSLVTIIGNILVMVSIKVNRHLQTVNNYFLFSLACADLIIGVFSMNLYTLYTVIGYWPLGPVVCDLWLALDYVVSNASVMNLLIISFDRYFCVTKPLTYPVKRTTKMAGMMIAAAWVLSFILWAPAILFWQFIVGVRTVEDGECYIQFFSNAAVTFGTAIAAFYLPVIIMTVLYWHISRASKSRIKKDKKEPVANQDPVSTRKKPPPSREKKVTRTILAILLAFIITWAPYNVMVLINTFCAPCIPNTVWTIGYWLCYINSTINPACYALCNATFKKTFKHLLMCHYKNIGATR
Protocol: as §1

hMor1-34GS-Nb33 = molecular target: T4, hMor1-34GS-Nb33 (Homo sapiens, UniProt P35372); assay: biochemical
T4 construct: HA signal peptide (N); made in house; host or cells: Sf9 insect cells (baculovirus), membranes

hMor1-34GS-Nb10 = molecular target: T5, hMor1-34GS-Nb10 (Homo sapiens, UniProt P35372); assay: biochemical
T5 construct: HA signal peptide (N); made in house; host or cells: Sf9 insect cells (baculovirus), membranes

[1] = molecular target: T6, non-fused β2AR365N in presence of exogenously added Nb80 (Homo sapiens, UniProt P07550, E27Q/G16R/N187E); assay: Radioligand competition assay on non-fused β2AR365N in complex with exogenously added Nb80; conditions: epinephrine bound active state; 5 μM Nb80 in 250 μl
T6 construct: made in house; host or cells: Sf9 insect cells (baculovirus), membranes; purified Nb80 added
Protocol: To compare the efficiency of fused versus non-fused Nb80 to stabilize the active state of β2AR, the pharmacological properties of the β2AR365N-Nb80 fusion was compared to the non-fused β2AR365N in complex with exogenously added Nb80. […] The β2AR365N-Nb69 fusion and β2AR365N in complex with exogenously added Nb69 were assayed in parallel as controls.
Radioligand competition binding experiments were performed on Sf9 insect cell membranes (5 μg total protein) expressing either β2AR365N (no Single-domain antibody fused), β2AR365N-Nb80 or β2AR365N-Nb69. […] Data represent the mean±SEM of each data point performed in triplicate.

Mor1 = Mor1 (Homo sapiens, UniProt P35372); assay: Affinity of Single-domain antibody for Mor1
β2AR = β2AR (Homo sapiens, UniProt P07550); assay: Affinity of Single-domain antibody for β2AR

C[N+](C)(C)CCOC(N)=O [carbachol]
affinity of M2Δi3R-Nb9-8 fusion compared to non-fused M2Δi3R (M2Δi3R-Nb9-8): higher affinity

C[N+](C)(C)CC#CCN1CCCC1=O [oxotremorine M]
IC50 ratio IC50m2Δi3R/IC50highM2Δi3R-Nb9-1 (M2Δi3R-Nb9-1): 316 | IC50 (M2Δi3R-Nb9-1; [3H]-NMS 0.5 nM, Sf9 membranes, IC50high): 310 nM | IC50 (M2Δi3R): 98400 nM

Cc1cc(O)cc(C)c1C[C@H](N)C(=O)N[C@H](CCCNC(=N)N)C(=O)N[C@H]1Cc2ccccc2CN(CCC(N)=O)C1=O [KGOP01]
IC50 (hMor1-34GS-Nb33): 3.8 nM | IC50Nb33/IC50Nb10 (fold preference) (hMor1-34GS-Nb33): 20 | IC50 (hMor1-34GS-Nb10): 76.7 nM

B1: Nb80: β2AR specific Single-domain antibody stabilizing the active state, SEQ ID NO:13 (protein)
VHH: QVQLQESGGGLVQAGGSLRLSCAASGSIFSINTMGWYRQAPGKQRELVAAIHSGGSTNYANSVKGRFTISRDNAANTVYLQMNSLKPEDTAVYYCNVKDYGAVLYEYDYWGQGTQVTVSS
modifications: Nb80
molar excess of exogenously added Nb80 over β2AR required to constrain the receptor with same efficiency as the fusion [1]: 12500 fold

B2: Nb10: Single-domain antibody specific for a chemokine GPCR, SEQ ID NO:20 (protein)
VHH: QVQLQESGGGLVQPGGSLRLSCAASGSFRSIVSMAWYRQAPGKQRELVASSNSGGSTNYADSVKGRFTISRDNAKNTVYLQMNSLKPEDTAVYWCNVQNRLPGFDAFSGRSIAETYWGQGTQVTVSS
modifications: Nb10
affinity for Mor1 (Mor1): no detectable affinity

B3: Nb69: mock Single-domain antibody specific for Muscarinic3 receptor, SEQ ID NO:15 (protein)
VHH: QVQLQESGGGLVQAGGSLRLSCTASGLTLSNYAMGWFRQAPGKEREFVAADTWNGNTYHQDSVKGRFTISRDNAKNTVYLQMNYLKPEDTAVYYCAARGSRRSAYYSSSDYTYRGQGTQVTVSS
modifications: Nb69
affinity for β2AR (β2AR): no detectable affinity
